Experimental data published in ChEMBL document CHEMBL3621075, “Discovery of benzothiazine derivatives as novel, orally-active anti-epileptic drug candidates with broad anticonvulsant effect” (Bioorg Med Chem Lett, 2015).
Activity calls are given as the source filed them.

Tests used:
[1] = system: Mus musculus; assay: Anticonvulsant activity in mouse assessed as protection against maximal electroshock-induced seizure at 400 mg/kg; format: functional, organism-based
[2] = system: Mus musculus; assay: Anticonvulsant activity in ip-dosed mouse assessed as protection against subcutaneous pentylenetetrazol-induced seizure; format: functional; settings: sc
[3] = species on record: Mus musculus; assay: Anticonvulsant activity in mouse assessed as protection against maximal electroshock-induced seizure; format: functional
[4] = system: Rattus norvegicus; assay: Anticonvulsant activity in rat amygdala kindling model assessed as change in after-discharge threshold at 100 mg/kg, po; format: functional
[5] = system: Mus musculus; assay: Anticonvulsant activity in mouse assessed as protection against maximal electroshock-induced seizure at 25 mg/kg; format: functional, organism-based
[6] = system: Rattus norvegicus; assay: Anticonvulsant activity in rat amygdala kindling model assessed as change in after-discharge duration at 30 mg/kg, po; format: functional
[7] = system: Rattus norvegicus; assay: Anticonvulsant activity in rat amygdala kindling model assessed as change in after-discharge threshold at 30 mg/kg, po; format: functional
[8] = system: Mus musculus; assay: Anticonvulsant activity in mouse assessed as protection against subcutaneous pentylenetetrazol-induced seizure at 100 mg/kg; format: functional, organism-based
[9] = system: Rattus norvegicus; assay: Anticonvulsant activity in rat amygdala kindling model assessed as change in after-discharge duration at 100 mg/kg, po; format: functional
[10] = system: Rattus norvegicus; assay: Anticonvulsant activity in rat amygdala kindling model assessed as decrease in rearing and bilateral forelimb clonus seizure 100 mg/kg, po; format: functional, organism-based
[11] = system: Mus musculus; assay: Anticonvulsant activity in mouse assessed as protection against maximal electroshock-induced seizure at 100 mg/kg; format: functional, organism-based
[12] = system: Mus musculus; assay: Anticonvulsant activity in mouse assessed as protection against maximal electroshock-induced seizure at 50 mg/kg; format: functional, organism-based
[13] = Permeability of compound at pH 7.4 by PAMPA assay; format: physicochemical; settings: read-out: permeability
[14] = Metabolic stability in rat liver microsome assessed as recovery of parent compound after 30 mins in presence NADPH; format: ADME; settings: liver microsomes, read-out: Drug recovery
[15] = Permeability of compound at pH 5.0 by PAMPA assay; format: physicochemical; settings: read-out: permeability
[16] = system: Mus musculus; assay: Anticonvulsant activity in mouse assessed as protection against subcutaneous pentylenetetrazol-induced seizure at 400 mg/kg; format: functional, organism-based

SMILES	Activity [1]	Papp [13] [×10⁻⁶ cm/s]	remaining at 0.5 h [14] [%]	Papp [15] [×10⁻⁶ cm/s]	further results
CN(C)C(=O)C1=Cc2ccccc2S(=O)(=O)N1C	Active				
NC(=O)N1c2ccccc2C=Cc2ccccc21 [CARBAMAZEPINE]					ED50 [2]: > 100 mg/kg; ED50 [3]: 13 mg/kg
CCNC(=O)C1=C(Cl)c2ccccc2S(=O)(=O)N1C					Activity [4]: 40.5%; Activity [5]: inactive; Activity [6]: -20%; Activity [7]: 10%; Activity [8]: Active; Activity [9]: -18.2%; Activity [10]: Active; Activity [11]: Active; Activity [12]: Active
CN1C(C(=O)NC2CC2)=C(C2CC2)c2ccccc2S1(=O)=O	Active	12	> 90	12	
CNC(=O)C1=Cc2ccccc2S(=O)(=O)N1C	Active	5.9	> 90	5.9	
CCN1C(C(=O)NC2CC2)=C(Cl)c2ccccc2S1(=O)=O	Active				
CCNC(=O)C1=Cc2ccccc2S(=O)(=O)N1C	Active	5.9	> 90	5.9	Activity [16]: Active
CN1C(C(=O)NCC(F)F)=Cc2ccccc2S1(=O)=O	Active				
CCCNC(=O)C1=Cc2ccccc2S(=O)(=O)N1C	Active	5.9	> 90	5.9	Activity [16]: Active; Activity [12]: inactive
O=C1NC(=O)C(c2ccccc2)(c2ccccc2)N1 [PHENYTOIN]					ED50 [2]: > 300 mg/kg; ED50 [3]: 8 mg/kg
CC(=O)NCCNC(=O)C1=Cc2ccccc2S(=O)(=O)N1C	inactive				
CN1C(C(=O)NC2CC2)=C(c2ccccc2)c2ccccc2S1(=O)=O					Activity [16]: inactive
CC1=C(C(=O)NC2CC2)N(C)S(=O)(=O)c2ccccc21	Active	12	> 90	12	Activity [11]: inactive
CN1C(C(=O)NC2CC2)=C(Cl)c2ccccc2S1(=O)=O	Active	12	> 90	12	
CCC1=C(C(=O)NC2CC2)N(C)S(=O)(=O)c2ccccc21	Active				
CN1C(C(=O)NC2CC2)=Cc2ccccc2S1(=O)=O	Active	5.9	> 90	5.9	Activity [16]: Active; Activity [11]: Active
CC(C)NC(=O)C1=Cc2ccccc2S(=O)(=O)N1C	Active				Activity [8]: inactive; Activity [11]: inactive
NS(=O)(=O)Cc1noc2ccccc12 [ZONISAMIDE]					ED50 [2]: > 500 mg/kg; Activity [4]: 45.9%; Activity [6]: 7%; Activity [7]: 5.1%; Activity [9]: -37.6%; ED50 [3]: 20 mg/kg
O=C(NC1CC1)C1=C(Cl)c2ccccc2S(=O)(=O)N1Cc1ccccc1	inactive				
